ChEMBL document CHEMBL2407021, “Unveiling the mode of action of antibacterial labdane diterpenes from Alpinia nigra (Gaertn.) B. L. Burtt seeds” (2013)
≈ marks a conversion by molar mass, not a printed value. Calls of active or inactive are those of the source. No cut-off for these calls is given here.

What was measured:
Listeria monocytogenes [1] = assay: Antibacterial activity against Listeria monocytogenes ATCC 19115 after 24 hrs; type: functional; settings: ATCC 19115, 24 h
Yersinia enterocolitica [2] = assay: Antibacterial activity against Yersinia enterocolitica MTCC 859 after 24 hrs; type: functional; settings: MTCC 859, 24 h
Escherichia coli [3] = assay: Antibacterial activity against enterotoxic Escherichia coli MTCC 723 after 18 hrs by microdilution method; type: functional; settings: MTCC 723, 18 h
Escherichia coli [4] = assay: Antibacterial activity against Escherichia coli ATCC 25922 after 18 hrs by microdilution method; type: functional; settings: ATCC 25922, 18 h
Listeria monocytogenes [5] = assay: Induction of cell damage in Listeria monocytogenes ATCC 19115 assessed as increase in fluorescence intensity at MIC after 12 hrs using propidium iodide staining by flow cytometry analysis; type: functional
Escherichia coli [6] = assay: Antibacterial activity against enterotoxic Escherichia coli MTCC 723 after 24 hrs; type: functional; settings: MTCC 723, 24 h
Bacillus cereus [7] = assay: Antibacterial activity against Bacillus cereus ATCC 11778 after 18 hrs by microdilution method; type: functional; settings: ATCC 11778, 18 h
Staphylococcus aureus [8] = assay: Induction of cell damage in Staphylococcus aureus ATCC 6538 assessed as increase in fluorescence intensity at MIC after 12 hrs using propidium iodide staining by flow cytometry analysis; type: functional
Bacillus cereus [9] = assay: Induction of cell damage in Bacillus cereus ATCC 11778 assessed as increase in fluorescence intensity at MIC after 12 hrs using propidium iodide staining by flow cytometry analysis; type: functional
Staphylococcus aureus [10] = assay: Induction of cell leakage in Staphylococcus aureus ATCC 6538 assessed as release of cellular materials at MIC after 8 to 16 hrs by UV/VIS spectrophotometer analysis; type: functional, organism-based
Bacillus cereus [11] = assay: Antibacterial activity against Bacillus cereus ATCC 11778 after 24 hrs; type: functional; settings: ATCC 11778, 24 h
Staphylococcus aureus [12] = assay: Induction of cell lysis in Staphylococcus aureus ATCC 6538 assessed as membrane disintegration and damage of cell wall at MIC by field emission scanning electron microscopy analysis; type: functional, organism-based
Escherichia coli [13] = assay: Antibacterial activity against Escherichia coli ATCC 25922 after 24 hrs; type: functional; settings: ATCC 25922, 24 h
Yersinia enterocolitica [14] = assay: Induction of cell damage in Yersinia enterocolitica MTCC 859 assessed as increase in fluorescence intensity at MIC after 12 hrs using propidium iodide staining by flow cytometry analysis; type: functional
Listeria monocytogenes [15] = assay: Antibacterial activity against Listeria monocytogenes ATCC 19115 after 18 hrs by microdilution method; type: functional; settings: ATCC 19115, 18 h
Staphylococcus aureus [16] = assay: Antibacterial activity against Staphylococcus aureus ATCC 6538 after 18 hrs by microdilution method; type: functional; settings: ATCC 6538, 18 h
Salmonella paratyphi [17] = assay: Induction of cell damage in Salmonella paratyphi A MTCC 735 assessed as increase in fluorescence intensity at MIC after 12 hrs using propidium iodide staining by flow cytometry analysis; type: functional, Salmonella enterica subsp. enterica serovar Paratyphi A
Escherichia coli [18] = assay: Induction of cell damage in Escherichia coli ATCC 25922 assessed as increase in fluorescence intensity at MIC after 12 hrs using propidium iodide staining by flow cytometry analysis; type: functional
Salmonella paratyphi [19] = assay: Antibacterial activity against Salmonella paratyphi A MTCC 735 after 24 hrs; type: functional, Salmonella enterica subsp. enterica serovar Paratyphi A; settings: Salmonella enterica, MTCC 735, 24 h
Staphylococcus aureus [20] = assay: Antibacterial activity against Staphylococcus aureus ATCC 6538 after 24 hrs; type: functional; settings: ATCC 6538, 24 h
Salmonella paratyphi [21] = assay: Antibacterial activity against Salmonella paratyphi A MTCC 735 after 18 hrs by microdilution method; type: functional, Salmonella enterica subsp. enterica serovar Paratyphi A; settings: Salmonella enterica, MTCC 735, 18 h
Yersinia enterocolitica [22] = assay: Antibacterial activity against Yersinia enterocolitica MTCC 859 after 18 hrs by microdilution method; type: functional; settings: MTCC 859, 18 h
Escherichia coli [23] = assay: Induction of cell damage in enterotoxic Escherichia coli MTCC 723 assessed as increase in fluorescence intensity at MIC after 12 hrs using propidium iodide staining by flow cytometry analysis; type: functional
Yersinia enterocolitica [24] = assay: Induction of cell lysis in Yersinia enterocolitica MTCC 859 assessed as cell membrane damage at MIC by field emission scanning electron microscopy analysis; type: functional, organism-based
Yersinia enterocolitica [25] = assay: Induction of cell leakage in Yersinia enterocolitica MTCC 859 assessed as release of cellular materials at MIC after 8 to 16 hrs by UV/VIS spectrophotometer analysis; type: functional, organism-based

Row | Compound | MBC (Listeria monocytogenes [1]) | MBC (Yersinia enterocolitica [2]) | MIC (Escherichia coli [3]) | MIC (Escherichia coli [4]) | RFU (Listeria monocytogenes [5]) | MBC (Escherichia coli [6]) | MIC (Bacillus cereus [7]) | RFU (Staphylococcus aureus [8]) | RFU (Bacillus cereus [9]) | Activity (Staphylococcus aureus [10]) | MBC (Bacillus cereus [11]) | Activity (Staphylococcus aureus [12]) | MBC (Escherichia coli [13]) | RFU (Yersinia enterocolitica [14]) | MIC (Listeria monocytogenes [15]) | MIC (Staphylococcus aureus [16]) | RFU (Salmonella paratyphi [17]) | RFU (Escherichia coli [18]) | MBC (Salmonella paratyphi [19]) | MBC (Staphylococcus aureus [20]) | further results
1 | C=C1CC[C@H]2C(C)(C)CCC[C@]2(C)[C@H]1C/C=C(/C=O)CC=O | 25 µg/mL (≈ 82.7 µM) | 25 µg/mL (≈ 82.7 µM) | 25 µg/mL (≈ 82.7 µM) | 25 µg/mL (≈ 82.7 µM) | 70.9 | 25 µg/mL (≈ 82.7 µM) | 12.5 µg/mL (≈ 41.3 µM) | 114 | 117 | Active | 12.5 µg/mL (≈ 41.3 µM) | Active | 50 µg/mL (≈ 165 µM) | 80.7 | 25 µg/mL (≈ 82.7 µM) | 12.5 µg/mL (≈ 41.3 µM) | 78.5 | 146 | 12.5 µg/mL (≈ 41.3 µM) | 25 µg/mL (≈ 82.7 µM) | MIC (Salmonella paratyphi [21]): 12.5 µg/mL (≈ 41.3 µM); MIC (Yersinia enterocolitica [22]): 12.5 µg/mL (≈ 41.3 µM); RFU (Escherichia coli [23]): 139; Activity (Yersinia enterocolitica [24]): Active; Activity (Yersinia enterocolitica [25]): Active
2 | CC1(C)CCC[C@@]2(C)[C@H]1CC[C@@]1(CO1)[C@@H]2C/C=C(/C=O)CC=O [AFRAMODIAL] | 12.5 µg/mL (≈ 39.3 µM) | 3.38 µg/mL (≈ 10.6 µM) | 6.75 µg/mL (≈ 21.2 µM) | 12.5 µg/mL (≈ 39.3 µM) | 89.9 | 6.75 µg/mL (≈ 21.2 µM) | 6.75 µg/mL (≈ 21.2 µM) | 119 | 118 | Active | 6.75 µg/mL (≈ 21.2 µM) | Active | 12.5 µg/mL (≈ 39.3 µM) | 117 | 12.5 µg/mL (≈ 39.3 µM) | 3.38 µg/mL (≈ 10.6 µM) | 87.6 | 187 | 12.5 µg/mL (≈ 39.3 µM) | 6.75 µg/mL (≈ 21.2 µM) | MIC (Salmonella paratyphi [21]): 6.75 µg/mL (≈ 21.2 µM); MIC (Yersinia enterocolitica [22]): 3.38 µg/mL (≈ 10.6 µM); RFU (Escherichia coli [23]): 153; Activity (Yersinia enterocolitica [24]): Active; Activity (Yersinia enterocolitica [25]): Active
